This assay relates to bioburden of powdered lactose. The experiment in a line: Bioburden testing (US Pharmacopeia 61, colony count) of lactose powder after ozone sterilization in the reactor chamber. It counts as cell-based. To be noted: 50 g lactose powder, 5 hrs, 35° C., 10 rpm, 0 ppm control 1800 CFU/ml. The procedure: (§1) Briefly, 50 grams of lactose powder was loaded into the reactor chamber. The chamber was evacuated to reach a pressure of 0.008 Torr and then 0.01 Torr. Then the chamber was filled with ozone at 25 sccm to 2 ppm, 10 ppm or 20 ppm. The ozone was kept in the chamber for 5 hrs. The reaction was held at 35° C. and the reactor chamber was rotated at 10 rpm. At the end of the 5 hour incubation time, the chamber was evacuated to reach a pressure of 0.01 Torr and purged with nitrogen. The lactose was then tested using US Pharmacopeia 61 testing. Briefly, the samples were incubated in petri-dishes and counted for colony forming units (cfu).
as §1, with “ppm. Water vapor was also added at an ozone/water ratio of 1:10.” for “ppm.”, “test” for “tested”, “testing.” for “testing. Briefly, the samples were incubated in petri-dishes and counted for colony forming units (cfu).”

With `O=[O+][O-]` [Dry ozone, ozone], the Bioburden reads like this: (ozone concentration 2 ppm) 500 CFU/ml; (ozone concentration 10 ppm) 50 CFU/ml; (ozone concentration 20 ppm) less than 1 CFU/ml.

The values are drawn from US20250352679A1, “IN-SITU STE[…] VAPOR PHASE DEPOSITION” (Applied Materials, Inc., priority 2024, published 2025).
